Legend:
[1] = tested on: ducksalad; test: Test B flooded paddy test; format: in vivo, Heteranthera limosa; conditions: 500 g ai/ha, Flood; scale of 0 to 100 where 0 is no effect and 100 is complete control
Method in brief: (§1)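 Visual ratings from 0, meaning no effect, up to 100, meaning complete control, were made by comparison with untreated controls 13 to 15 days after treatment. Test compounds went straight into floodwater standing 3 cm over the soil of pots holding 2-leaf seedlings.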

[2] = tested on: barnyardgrass; test: Test A pre-/postemergence herbicide test; format: in vivo, Echinochloa crus-galli
Method in brief: (§2)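 Approximately 10 days after treatment in the greenhouse, plants were compared with untreated controls and given a 0–100 visual injury rating. Applications: preemergence directed soil spray; postemergence on 2–10 cm plants at the one- to two-leaf stage.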

[3] = tested on: pigweed; test: Test A pre-/postemergence herbicide test; format: in vivo, Amaranthus retroflexus; conditions: for Plant response rating, Pigweed: 0 to 100 scale
Method in brief: as §2

[4] = tested on: giant foxtail; test: Test A pre-/postemergence herbicide test; format: in vivo, Setaria faberii; conditions: for Plant response rating, Foxtail, Giant: 0 to 100 scale
Method in brief: as §2

[5] = tested on: rice; test: Test B flooded paddy test; format: in vivo, Oryza sativa; conditions: 500 g ai/ha, Flood; scale of 0 to 100 where 0 is no effect and 100 is complete control
Method in brief: as §1

[6] = tested on: sedge, umbrella; test: Test B flooded paddy test; format: in vivo, Cyperus difformis; conditions: 500 g ai/ha, Flood; scale of 0 to 100 where 0 is no effect and 100 is complete control
Method in brief: as §1

[7] = tested on: kochia; test: Test A pre-/postemergence herbicide test; format: in vivo, Kochia scoparia; conditions: for Plant response rating, Kochia: 0 to 100 scale
Method in brief: as §2

[8] = tested on: ryegrass, Italian; test: Test A pre-/postemergence herbicide test; format: in vivo, Lolium multiflorum; conditions: for Plant response rating, Ryegrass, Italian: 0 to 100 scale
Method in brief: as §2

[9] = tested on: wheat; test: Test A pre-/postemergence herbicide test; format: in vivo, Triticum aestivum; conditions: Postemergence; for Plant response rating, Wheat: 125 g ai/ha, 0 to 100 scale; for Wheat plant response rating (0 to 100 scale, 0 is no effect, 100 is complete control): 500 g ai/ha
Method in brief: as §2

[10] = tested on: galium; test: Test A postemergence herbicide test; format: in vivo, Galium aparine; conditions: for Plant response rating, Galium: 125 g ai/ha, 0 to 100 scale; for Galium plant response rating (0 to 100 scale, 0 is no effect, 100 is complete control): 500 g ai/ha
Method in brief: (§3)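 Injury was rated visually about 10 days after treatment on a 0 (no effect) to 100 (complete control) scale, compared with untreated plants. Test chemicals were sprayed postemergence onto greenhouse plants 2–10 cm high at one to two leaves, grown in a loam–sand blend.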

[11] = tested on: ragweed; test: Test A pre-/postemergence herbicide test; format: in vivo, Ambrosia elatior; conditions: for Plant response rating, Ragweed: 0 to 100 scale
Method in brief: as §2

[12] = tested on: corn; test: Test A pre-/postemergence herbicide test; format: in vivo, Zea mays; conditions: Postemergence; for Plant response rating, Corn: 125 g ai/ha, 0 to 100 scale; for Corn plant response rating (0 to 100 scale, 0 is no effect, 100 is complete control): 500 g ai/ha
Method in brief: as §2

[13] = tested on: blackgrass; test: Test A postemergence herbicide test; format: in vivo, Alopecurus myosuroides; conditions: for Plant response rating, Blackgrass: 125 g ai/ha, 0 to 100 scale; for Blackgrass plant response rating (0 to 100 scale, 0 is no effect, 100 is complete control): 500 g ai/ha
Method in brief: as §3

[14] = tested on: barnyardgrass; test: Test B flooded paddy test; format: in vivo, Echinochloa crus-galli; conditions: 500 g ai/ha, Flood; scale of 0 to 100 where 0 is no effect and 100 is complete control
Method in brief: as §1

[15] = 125 g ai/ha, visual rating, 0 to 100 scale, 0 no effect, 100 complete control, approximately 10 days, preemergence
[16] = Postemergence, 125 g ai/ha, 0 to 100 scale, 0 no effect, 100 complete control
[17] = preemergence, 500 g ai/ha, 0 to 100 scale (0 no effect, 100 complete control)
[18] = 125 g ai/ha, visual rating, 0 no effect, 100 complete control, approximately 10 days, preemergence
[19] = Postemergence, 125 g ai/ha, 0 no effect, 100 complete control
[20] = 0 no effect, 100 complete control
[21] = Postemergence, 125 g ai/ha, 0 is no effect, 100 is complete control
[22] = preemergence, 500 g ai/ha, 0 is no effect and 100 is complete control
[23] = 0 is no effect, 100 is complete control

Compound | Plant response rating, Ducksalad [1] | Plant response rating, Barnyardgrass [2, 15] | Barnyardgrass plant response rating (0 to 100 scale, 0 is no effect, 100 is complete control) ([2]; Postemergence, 500 g ai/ha) | Plant response rating, Barnyardgrass [2, 17] | Plant response rating, Pigweed [3, 18] | Pigweed plant response rating (0 to 100 scale, 0 is no effect, 100 is complete control) ([3]; Postemergence, 500 g ai/ha) | Plant response rating, Foxtail, Giant [4, 18] | Foxtail, Giant plant response rating (0 to 100 scale, 0 is no effect, 100 is complete control) ([4]; Postemergence, 500 g ai/ha) | Plant response rating, Foxtail, Giant ([4]; preemergence, 500 g ai/ha) | Plant response rating, Rice [5] | Plant response rating, Sedge, Umbrella [6] | Plant response rating, Kochia [7, 18] | Kochia plant response rating (0 to 100 scale, 0 is no effect, 100 is complete control) ([7]; Postemergence, 500 g ai/ha) | Plant response rating, Ryegrass, Italian [8, 18] | Ryegrass, Italian plant response rating (0 to 100 scale, 0 is no effect, 100 is complete control) ([8]; Postemergence, 500 g ai/ha) | Wheat plant response rating (0 to 100 scale, 0 is no effect, 100 is complete control) [9] | Galium plant response rating (0 to 100 scale, 0 is no effect, 100 is complete control) [10] | Plant response rating, Ragweed [11, 18] | Ragweed plant response rating (0 to 100 scale, 0 is no effect, 100 is complete control) ([11]; Postemergence, 500 g ai/ha) | Corn plant response rating (0 to 100 scale, 0 is no effect, 100 is complete control) [12] | further results
Cc1ccc(C2CNC(=O)C2C(=O)Nc2cccc(F)c2F)cc1F (racemic) [Compound 146] | 100 | 90 | 90 | 90 | 0 | 0 | 80 | 70 | 90 | 0 | 0 | 0 | 70 | 0 | 60 | 70 | 70 | 0 | 60 | 50 | Plant response rating, Barnyardgrass [2, 16]: 90; Plant response rating, Pigweed [3, 19]: 0; Plant response rating, Pigweed ([3]; preemergence, 500 g ai/ha): 0; Plant response rating, Foxtail, Giant [4, 19]: 0; Plant response rating, Kochia [7, 19]: 0; Plant response rating, Kochia ([7]; preemergence, 500 g ai/ha): 30; Plant response rating, Ryegrass, Italian [8, 19]: 20; Plant response rating, Ryegrass, Italian ([8]; preemergence, 500 g ai/ha): 40; Plant response rating, Wheat [9, 20]: 0; Plant response rating, Galium [10, 20]: 40; Plant response rating, Ragweed [11, 19]: 0; Plant response rating, Ragweed ([11]; preemergence, 500 g ai/ha): 30; Plant response rating, Corn [12, 20]: 0; Plant response rating, Blackgrass [13, 20]: 30; Blackgrass plant response rating (0 to 100 scale, 0 is no effect, 100 is complete control) [13]: 70; Plant response rating, Barnyardgrass [14]: 80
Cc1ccc(C2CNC(=O)C2C(=O)Nc2ccc(F)c(F)c2F)cc1F (racemic) [Compound 147] | 100 | 90 | 90 | 90 | 0 | 10 | 80 | 70 | 90 | 0 | 0 | 30 | 60 | 0 | 50 | 40 | 60 | 0 | 50 | 50 | Plant response rating, Barnyardgrass [2, 16]: 90; Plant response rating, Pigweed [3, 19]: 0; Plant response rating, Pigweed ([3]; preemergence, 500 g ai/ha): 0; Plant response rating, Foxtail, Giant [4, 19]: 40; Plant response rating, Kochia [7, 19]: 40; Plant response rating, Kochia ([7]; preemergence, 500 g ai/ha): 80; Plant response rating, Ryegrass, Italian [8, 19]: 20; Plant response rating, Ryegrass, Italian ([8]; preemergence, 500 g ai/ha): 40; Plant response rating, Wheat [9, 20]: 0; Plant response rating, Galium [10, 20]: 50; Plant response rating, Ragweed [11, 19]: 0; Plant response rating, Ragweed ([11]; preemergence, 500 g ai/ha): 50; Plant response rating, Corn [12, 20]: 0; Plant response rating, Blackgrass [13, 20]: 40; Blackgrass plant response rating (0 to 100 scale, 0 is no effect, 100 is complete control) [13]: 60; Plant response rating, Barnyardgrass [14]: 70
Cc1ccc(C2CNC(=O)C2C(=O)Nc2ccc(F)cc2F)cc1 (racemic) [Compound 150] | 100 | 80 | 80 | 90 | 0 | 20 | 70 | 70 | 90 | 0 | 0 | 60 | 60 | 0 | 0 | 0 | 60 | 0 | 20 | 30 | Plant response rating, Barnyardgrass [2, 16]: 80; Plant response rating, Pigweed [3, 19]: 0; Plant response rating, Pigweed ([3]; preemergence, 500 g ai/ha): 0; Plant response rating, Foxtail, Giant [4, 19]: 30; Plant response rating, Kochia [7, 19]: 30; Plant response rating, Kochia ([7]; preemergence, 500 g ai/ha): 90; Plant response rating, Ryegrass, Italian [8, 19]: 0; Plant response rating, Ryegrass, Italian ([8]; preemergence, 500 g ai/ha): 50; Plant response rating, Wheat [9, 20]: 0; Plant response rating, Galium [10, 20]: 50; Plant response rating, Ragweed [11, 19]: 0; Plant response rating, Ragweed ([11]; preemergence, 500 g ai/ha): 50; Plant response rating, Corn [12, 20]: 0; Plant response rating, Blackgrass [13, 20]: 0; Blackgrass plant response rating (0 to 100 scale, 0 is no effect, 100 is complete control) [13]: 10; Plant response rating, Barnyardgrass [14]: 80
CS(=O)(=O)c1ccccc1NC(=O)C1C(=O)NCC1c1cccc(C(F)(F)F)c1 (racemic) [Compound 160] | 100 | 80 | 80 | 90 | 70 | 80 | 80 | 90 | 90 | 10 | 0 | 80 | 80 | 60 | 10 | 50 | 70 | 70 | 60 | 70 | Plant response rating, Barnyardgrass ([2]; Postemergence, 125 g ai/ha, 0 to 100 scale, 0 is no effect, 100 is complete control): 70; Plant response rating, Pigweed [3, 21]: 60; Plant response rating, Pigweed [3, 22]: 90; Plant response rating, Foxtail, Giant [4, 21]: 80; Plant response rating, Kochia [7, 21]: 70; Plant response rating, Kochia [7, 22]: 90; Plant response rating, Ryegrass, Italian [8, 21]: 0; Plant response rating, Ryegrass, Italian [8, 22]: 70; Plant response rating, Wheat [9, 23]: 0; Plant response rating, Galium [10, 23]: 60; Plant response rating, Ragweed [11, 21]: 50; Plant response rating, Ragweed [11, 22]: 80; Plant response rating, Corn [12, 23]: 40; Plant response rating, Blackgrass [13, 23]: 60; Blackgrass plant response rating (0 to 100 scale, 0 is no effect, 100 is complete control) [13]: 70; Plant response rating, Barnyardgrass [14]: 60
